Test results as given in patent US20220186063A1, “BEVERAGE STRAW COATED WITH AN ACTIVE COMPOUND AND METHOD OF MANUFACTURING” (priority 2020, published 2022).

Experiment: Release of THC from straw coating as water is drawn through the straw (Example 5)
Assay type: physicochemical
Conditions: after 220 ml of water passes through the straw over 30 minutes; composite of six straws
Method: A study was performed to determine how long it takes for […] to be released from the coating as a liquid is drawn through the coated straw, and to determine how much liquid is required to achieve the full dose of the active ingredient.
The volume of dispersion required to achieve a 10 mg dose of THC was calculated. A pipette was calibrated to ensure that it dispenses the correct amount of dispersion to achieve the desired dose, and then it was loaded with the appropriate amount of the dispersion.
The calculated amount of dispersion was injected using the pipette into PFTA sugarcane straws. The dispersion was allowed to gradually coat the inside of each straw by arranging them vertically. Care was taken to not allow the dispersion to come out of the bottom of the straws.
Straws were dried by taping them horizontally to a tray using food-grade mylar and placing the tray into a convection oven at 55° C. for approximately 60 minutes or until dispersion was visibly dry. Straws were checked every 30 minutes. Once the straws were dry, they were removed from the oven and allowed to cool.
For each straw, a syringe was affixed to the end of a prepared coated straw. The opposing end of the straw was placed in a beaker of deionized water. […]

CCCCCc1cc(O)c2c(c1)OC(C)(C)[C@@H]1CCC(C)=C[C@@H]21 [THC, (6aR,10aR)-6,6,9-trimethyl-3-pentyl-6a,7,8,10a-tetrahydro-6H-benzo[c]chromen-1-ol]
THC released from the coating: approximately 60%
